Tests used:
[1] = biological target: Glutamate receptor 1 (Rattus norvegicus) (UniProt P19490); assay: Agonist activity at rat recombinant GluR1 flip isoform expressed in HEK293 cells assessed as increase in intracellular calcium level by Fluo-4/AM assay relative to glutamic acid; type: functional, cell-based
[2] = biological target: Glutamate receptor 3 (Rattus norvegicus) (UniProt P19492); assay: Agonist activity at rat recombinant GluR3 flip isomer expressed in HEK293 cells assessed as increase in intracellular calcium level by Fluo-4/AM assay relative to glutamic acid; type: functional, cell-based
Chain of Glutamate receptor 3 (Rattus norvegicus) (P19492 whole entry): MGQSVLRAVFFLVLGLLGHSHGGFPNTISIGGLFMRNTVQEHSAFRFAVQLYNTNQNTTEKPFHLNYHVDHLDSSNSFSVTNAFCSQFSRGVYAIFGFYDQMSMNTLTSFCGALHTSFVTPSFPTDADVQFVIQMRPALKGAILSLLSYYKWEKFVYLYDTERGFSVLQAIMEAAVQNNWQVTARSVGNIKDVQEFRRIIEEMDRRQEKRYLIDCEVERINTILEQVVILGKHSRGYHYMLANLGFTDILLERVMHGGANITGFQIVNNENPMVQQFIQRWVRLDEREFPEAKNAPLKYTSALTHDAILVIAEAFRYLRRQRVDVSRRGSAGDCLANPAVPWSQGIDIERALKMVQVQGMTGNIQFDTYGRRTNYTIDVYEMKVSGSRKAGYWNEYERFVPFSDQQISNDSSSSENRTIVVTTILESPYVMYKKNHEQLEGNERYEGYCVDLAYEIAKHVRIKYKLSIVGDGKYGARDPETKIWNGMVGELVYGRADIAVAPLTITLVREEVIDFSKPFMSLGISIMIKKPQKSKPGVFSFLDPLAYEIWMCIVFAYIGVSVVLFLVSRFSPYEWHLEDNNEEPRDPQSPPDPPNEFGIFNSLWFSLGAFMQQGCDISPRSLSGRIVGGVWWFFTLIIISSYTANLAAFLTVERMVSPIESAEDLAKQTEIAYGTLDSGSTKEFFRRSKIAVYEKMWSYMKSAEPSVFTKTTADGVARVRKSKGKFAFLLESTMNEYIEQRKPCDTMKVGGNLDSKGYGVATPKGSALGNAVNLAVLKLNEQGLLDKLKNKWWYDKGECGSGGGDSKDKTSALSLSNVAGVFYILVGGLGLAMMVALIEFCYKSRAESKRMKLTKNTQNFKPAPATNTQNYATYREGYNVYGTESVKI

[3] = biological target: T1, Glutamate receptor 4 (Rattus norvegicus, UniProt P19493); assay: Agonist activity at rat recombinant GluR4 flip isomer expressed in HEK293 cells assessed as increase in intracellular calcium level by Fluo-4/AM assay; type: functional, cell-based
T1 sequence (P19493 whole entry): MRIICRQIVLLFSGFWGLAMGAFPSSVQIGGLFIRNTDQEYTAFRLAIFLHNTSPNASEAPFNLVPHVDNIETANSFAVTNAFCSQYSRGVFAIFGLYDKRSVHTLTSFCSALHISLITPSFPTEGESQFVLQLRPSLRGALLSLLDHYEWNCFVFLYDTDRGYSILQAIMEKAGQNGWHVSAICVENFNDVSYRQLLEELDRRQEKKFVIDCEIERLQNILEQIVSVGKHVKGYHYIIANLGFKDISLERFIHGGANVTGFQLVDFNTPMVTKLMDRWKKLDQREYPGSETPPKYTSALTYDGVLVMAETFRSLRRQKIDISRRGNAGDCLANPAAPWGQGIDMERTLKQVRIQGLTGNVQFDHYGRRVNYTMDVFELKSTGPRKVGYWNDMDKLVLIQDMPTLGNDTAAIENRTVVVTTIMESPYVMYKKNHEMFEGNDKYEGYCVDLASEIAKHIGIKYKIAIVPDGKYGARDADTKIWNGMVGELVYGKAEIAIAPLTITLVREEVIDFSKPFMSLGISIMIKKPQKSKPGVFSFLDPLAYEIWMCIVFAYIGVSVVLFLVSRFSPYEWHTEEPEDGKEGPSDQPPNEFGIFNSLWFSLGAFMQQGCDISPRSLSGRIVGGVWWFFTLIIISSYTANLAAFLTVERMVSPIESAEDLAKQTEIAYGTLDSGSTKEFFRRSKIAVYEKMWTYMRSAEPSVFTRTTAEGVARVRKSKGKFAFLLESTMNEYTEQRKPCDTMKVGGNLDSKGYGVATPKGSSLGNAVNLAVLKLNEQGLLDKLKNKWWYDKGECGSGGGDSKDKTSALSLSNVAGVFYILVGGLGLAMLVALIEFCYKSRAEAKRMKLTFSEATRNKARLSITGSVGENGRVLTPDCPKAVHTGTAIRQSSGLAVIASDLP

[4] = biological target: Glutamate receptor 4 (Rattus norvegicus) (UniProt P19493); assay: Agonist activity at rat recombinant GluR4 flip isomer expressed in HEK293 cells assessed as increase in intracellular calcium level by Fluo-4/AM assay relative to glutamic acid; type: functional, cell-based
Chain of Glutamate receptor 4 (Rattus norvegicus) (P19493 whole entry): as above

[5] = biological target: Glutamate NMDA receptor; assay: Displacement of […] from NMDA receptor in rat cortical synaptosomes; type: subcellular, Brain
[6] = biological target: T2, Glutamate receptor 1 (Rattus norvegicus, UniProt P19490); assay: Displacement of [3H]AMPA from rat recombinant GluR1 flop isoform expressed in baculovirus infected Sf9 cells
T2 sequence (P19490 whole entry, canonical isoform): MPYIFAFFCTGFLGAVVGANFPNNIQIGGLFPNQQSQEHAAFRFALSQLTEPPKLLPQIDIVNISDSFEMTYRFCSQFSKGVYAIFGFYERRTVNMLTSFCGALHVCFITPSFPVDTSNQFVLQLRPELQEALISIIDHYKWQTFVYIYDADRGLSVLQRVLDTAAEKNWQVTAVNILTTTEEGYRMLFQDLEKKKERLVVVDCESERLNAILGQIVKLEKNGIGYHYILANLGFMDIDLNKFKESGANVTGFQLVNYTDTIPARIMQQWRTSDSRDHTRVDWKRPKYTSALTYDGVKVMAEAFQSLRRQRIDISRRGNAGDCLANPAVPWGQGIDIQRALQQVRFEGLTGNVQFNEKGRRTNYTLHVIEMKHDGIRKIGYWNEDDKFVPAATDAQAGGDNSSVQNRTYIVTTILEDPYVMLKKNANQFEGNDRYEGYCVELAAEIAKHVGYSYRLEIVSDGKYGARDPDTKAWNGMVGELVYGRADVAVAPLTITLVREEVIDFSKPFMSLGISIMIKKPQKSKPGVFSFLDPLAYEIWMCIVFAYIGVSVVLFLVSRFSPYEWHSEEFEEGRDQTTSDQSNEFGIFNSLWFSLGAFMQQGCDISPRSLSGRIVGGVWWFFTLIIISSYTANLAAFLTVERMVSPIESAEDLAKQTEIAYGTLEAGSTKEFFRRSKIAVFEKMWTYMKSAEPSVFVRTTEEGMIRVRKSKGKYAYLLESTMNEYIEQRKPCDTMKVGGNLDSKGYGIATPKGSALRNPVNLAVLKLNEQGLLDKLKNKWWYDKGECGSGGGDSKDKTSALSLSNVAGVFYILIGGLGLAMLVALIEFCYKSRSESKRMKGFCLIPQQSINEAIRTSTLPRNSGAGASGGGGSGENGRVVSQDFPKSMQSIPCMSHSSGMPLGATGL

[7] = biological target: T3, Glutamate receptor 2 (Rattus norvegicus, UniProt P19491); assay: Displacement of [3H]AMPA from rat recombinant GluR2(R) RNA-edited flop isoform expressed in baculovirus infected Sf9 cells
T3 sequence (P19491 whole entry, canonical isoform): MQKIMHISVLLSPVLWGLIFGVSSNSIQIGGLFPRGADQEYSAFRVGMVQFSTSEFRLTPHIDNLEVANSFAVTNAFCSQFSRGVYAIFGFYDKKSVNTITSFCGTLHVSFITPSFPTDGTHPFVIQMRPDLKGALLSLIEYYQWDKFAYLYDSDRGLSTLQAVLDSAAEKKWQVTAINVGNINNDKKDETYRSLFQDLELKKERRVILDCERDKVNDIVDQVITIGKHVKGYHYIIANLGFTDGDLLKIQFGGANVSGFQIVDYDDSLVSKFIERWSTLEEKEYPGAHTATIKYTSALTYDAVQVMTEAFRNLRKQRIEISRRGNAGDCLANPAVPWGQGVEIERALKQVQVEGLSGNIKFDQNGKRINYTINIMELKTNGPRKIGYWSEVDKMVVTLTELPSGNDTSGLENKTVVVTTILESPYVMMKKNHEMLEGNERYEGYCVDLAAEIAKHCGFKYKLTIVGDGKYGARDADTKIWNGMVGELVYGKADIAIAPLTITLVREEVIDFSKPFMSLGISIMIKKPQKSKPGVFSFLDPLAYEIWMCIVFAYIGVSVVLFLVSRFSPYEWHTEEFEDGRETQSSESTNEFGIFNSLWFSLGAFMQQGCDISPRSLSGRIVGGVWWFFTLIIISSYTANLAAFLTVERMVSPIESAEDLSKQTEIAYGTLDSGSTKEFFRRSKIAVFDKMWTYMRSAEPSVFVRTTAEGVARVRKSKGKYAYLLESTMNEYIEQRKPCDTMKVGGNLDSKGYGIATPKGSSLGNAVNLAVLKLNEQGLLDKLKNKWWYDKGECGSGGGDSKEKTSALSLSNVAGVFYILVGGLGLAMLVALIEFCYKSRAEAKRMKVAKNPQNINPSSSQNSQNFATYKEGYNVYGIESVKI

[8] = biological target: T4, Glutamate receptor 3 (Rattus norvegicus, UniProt P19492); assay: Displacement of [3H]AMPA from rat recombinant GluR3 flop isoform expressed in baculovirus infected Sf9 cells
T4 sequence (P19492 whole entry, canonical isoform): as the sequence (P19492 whole entry) above

[9] = biological target: T1, Glutamate receptor 4; assay: Displacement of [3H]AMPA from rat recombinant GluR4 flop isoform expressed in baculovirus infected Sf9 cells
[10] = biological target: T2, Glutamate receptor 1; assay: Agonist activity at rat recombinant GluR1 flip isoform expressed in HEK293 cells assessed as increase in intracellular calcium level by Fluo-4/AM assay; type: functional, cell-based
[11] = biological target: T4, Glutamate receptor 3; assay: Agonist activity at rat recombinant GluR3 flip isomer expressed in HEK293 cells assessed as increase in intracellular calcium level by Fluo-4/AM assay; type: functional, cell-based
[12] = biological target: T2, Glutamate receptor 1; assay: Agonist activity at ConA-treated rat GluR1 flip isoform expressed in Xenopus laevis oocytes assessed as glutamic acid-induced maximal current by two-electrode voltage clamp method; type: functional, cell-based, Oocyte
[13] = biological target: T3, Glutamate receptor 2
Description: Agonist activity at rat recombinant GluR2(Q) RNA-edited isoform expressed in HEK293 cells assessed as increase in intracellular calcium level by Fluo-4/AM assay

[14] = Displacement of [3H]AMPA from AMPA receptor in rat cortical synaptosomes; type: subcellular, Brain
[15] = Displacement of [3H]KA from KA receptor in rat cortical synaptosomes; type: subcellular, Brain
[16] = biological target: Glutamate NMDA receptor; assay: Displacement of [3H]CGP from NMDA receptor in rat cortical synaptosomes; type: subcellular, Brain
[17] = biological target: T5, Glutamate receptor ionotropic, kainate 1 (Rattus norvegicus, UniProt P22756); assay: Displacement of [3H]SYM from rat recombinant GluR5(Q) RNA-edited isoform expressed in baculovirus infected Sf9 cells
T5 sequence (P22756 whole entry, canonical isoform): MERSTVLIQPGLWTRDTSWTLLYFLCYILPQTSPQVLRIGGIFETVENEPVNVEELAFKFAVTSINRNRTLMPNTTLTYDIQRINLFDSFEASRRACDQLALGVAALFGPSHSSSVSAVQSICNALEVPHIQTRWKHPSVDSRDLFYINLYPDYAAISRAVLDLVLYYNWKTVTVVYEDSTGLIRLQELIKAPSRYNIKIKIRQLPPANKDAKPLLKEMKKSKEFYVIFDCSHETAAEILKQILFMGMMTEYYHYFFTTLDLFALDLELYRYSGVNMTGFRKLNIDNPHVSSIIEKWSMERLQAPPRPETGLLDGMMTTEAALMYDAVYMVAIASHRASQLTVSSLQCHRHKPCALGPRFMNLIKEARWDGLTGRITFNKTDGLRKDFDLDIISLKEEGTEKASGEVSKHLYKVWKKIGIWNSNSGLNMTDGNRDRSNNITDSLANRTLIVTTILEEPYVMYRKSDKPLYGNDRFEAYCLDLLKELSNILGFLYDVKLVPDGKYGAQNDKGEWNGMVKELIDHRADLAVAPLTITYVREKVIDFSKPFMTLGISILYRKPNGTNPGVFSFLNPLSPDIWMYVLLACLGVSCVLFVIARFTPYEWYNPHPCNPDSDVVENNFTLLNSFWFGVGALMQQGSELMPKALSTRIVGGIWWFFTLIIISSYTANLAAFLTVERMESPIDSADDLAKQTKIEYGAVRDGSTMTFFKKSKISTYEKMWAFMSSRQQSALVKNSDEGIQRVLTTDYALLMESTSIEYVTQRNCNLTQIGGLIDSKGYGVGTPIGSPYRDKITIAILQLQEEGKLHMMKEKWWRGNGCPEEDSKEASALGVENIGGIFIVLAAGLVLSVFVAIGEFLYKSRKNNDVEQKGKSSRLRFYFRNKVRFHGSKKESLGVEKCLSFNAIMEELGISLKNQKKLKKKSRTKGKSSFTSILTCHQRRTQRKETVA

[18] = biological target: T6, Glutamate receptor ionotropic, kainate 2 (Rattus norvegicus, UniProt P42260); assay: Displacement of [3H]KA from rat recombinant GluR6(VCR) RNA-edited isoform expressed in baculovirus infected Sf9 cells
[19] = biological target: Glutamate receptor ionotropic, kainate 3 (Rattus norvegicus, UniProt P42264); assay: Displacement of [3H]SYM from rat recombinant GluR7A expressed in baculovirus infected Sf9 cells
[20] = biological target: T6, Glutamate receptor ionotropic, kainate 2; assay: Agonist activity at rat recombinant GluR6(Q) RNA-edited isoform expressed in HEK293 cells assessed as increase in intracellular calcium level by Fluo-4/AM assay; type: functional, cell-based
[21] = biological target: T5, Glutamate receptor ionotropic, kainate 1; assay: Agonist activity at ConA-treated rat GluR5(Q) RNA-edited isoform expressed in Xenopus laevis oocytes assessed as glutamic acid-induced maximal current by two-electrode voltage clamp method; type: functional, cell-based, Oocyte
[22] = biological target: Glutamate NMDA receptor; Grin1/Grin2a (Rattus norvegicus, UniProt P35439+Q00959); assay: Agonist activity at ConA-treated rat NR1/NR2A expressed in Xenopus laevis oocytes assessed as glycine-induced maximal current by two-electrode voltage clamp method; type: functional, cell-based, Oocyte
[23] = biological target: T5, Glutamate receptor ionotropic, kainate 1
Description: Agonist activity at rat recombinant GluR5(Q) RNA-edited isoform expressed in HEK293 cells assessed as increase in intracellular calcium level by Fluo-4/AM assay

Chain of Glutamate receptor 1 (Rattus norvegicus) (P19490 whole entry, canonical isoform): as the sequence (P19490 whole entry, canonical isoform) above

Structure (SMILES)	Activity [1] [%]	Activity [2] [%]	EC50 ([3]; read-out: EC50) [µM]	Activity [4] [%]	Ki [6] [µM]	Ki [7] [µM]	Ki [8] [µM]	Ki [9] [µM]	EC50 [10] [µM]	EC50 ([11]; read-out: EC50) [µM]	EC50 [12] [µM]	EC50 [13] [µM]	IC50 [14] [µM]	IC50 [15] [µM]	Ki [16] [µM]	further results
C=C(C)[C@H]1CN[C@H](C(=O)O)[C@H]1CC(=O)O [KAINIC ACID]	18	45	47	55	–	–	–	–	–	–	–	–	–	–	–	–
CC(C)(C)c1o[nH]c(=O)c1C[C@H](N)C(=O)O	–	–	–	–	2.78	1.66	2.04	2.14	730	630	62	> 1000	–	–	–	Ki [5]: > 100 µM
CC1CCC=C(C[C@H](N)C(=O)O)c2c(O)noc21 (mixture of isomers)	29	46	35	68	1.55	6.31	1.11	2.2	70	48	70	160	9.7	8.3	> 100	Ki [17]: 0.00508 µM; Ki [18]: > 100 µM; Ki [19]: 1.38 µM; EC50 ([11]; read-out: pEC50 (converted)): 63.1 µM; EC50 ([3]; read-out: pEC50 (converted)): 158 µM; EC50 [20]: > 1000 µM; EC50 [21]: 0.24 µM; EC50 [22]: > 1000 µM; EC50 [23]: 0.86 µM
CC(C)(C)c1onc(O)c1C[C@H](N)C(=O)O	101	100	–	102	–	–	–	–	–	–	–	–	1.8	23	–	EC50 ([3]; hek293, read-out: EC50): 150 µM
Cc1onc(O)c1C[C@H](N)C(=O)O [(S)-AMPA]	–	–	–	–	–	–	–	–	–	–	–	–	0.039	> 100	–	–
N[C@@H](CC1=CCCCc2onc(O)c21)C(=O)O	28	54	6.7	79	0.232	0.175	0.173	0.202	32	13	4.5	92	0.28	1.6	> 100	–
